The values that follow come from ChEMBL document CHEMBL3739372 (Bioorg Med Chem, 2015).

By IC50 is commonly meant the concentration that inhibits the measured activity by half.

A short description of the test: Inhibition of Influenza B virus neuraminidase R152K mutant.

As for `CCOC(=O)c1cn(CC)c2ccc(-n3cc(C4=CCCCC4)nn3)cc2c1=O`, half-maximal inhibition (IC50) required 30 µM.
`CCOC(=O)C1=C[C@@H](OC(CC)CC)[C@H](NC(C)=O)[C@@H](N)C1` [OSELTAMIVIR] had a concentration for half-maximal inhibition (IC50) of 85 µM.
